We go through 1 molecule from patent US20200276139A1 (Evoke Pharma, Inc., priority 2017, published 2020).

The nature of data set [1]: Study METO-IN-006: open-label, randomized, 4-treatment crossover pharmacokinetic/bioequivalence study of intranasal metoclopramide (Gimoti 15, 16, 17 mg) vs Reglan Tablets 10 mg. The settings on record: for AUC0-inf Inter-CV % (Between-Subject) / AUC0-inf Intra-CV % (Within-Subject) / AUC0-t Inter-CV % (Between-Subject) / AUC0-t Intra-CV % (Within-Subject) / Cmax Inter-CV % (Between-Subject) / Cmax Intra-CV % (Within-Subject): bioequivalence analysis over all treatments. The data set is classed as in vivo, human. An excerpt: In the study, approximately 108 healthy subjects may be enrolled to allow approximately 100 subjects to complete the study.
The pharmacokinetic study will be an open-label, randomized, 4-treatment, 4-period, 4-sequence crossover study. […] Further, the subjects will undergo screening, in which the eligibility of the subjects will be assessed after completion of inclusion and exclusion criteria. […] Samples will be collected over many hours after the dose. Subjects will return to the clinic after the minimum washout for subsequent doses until the four-period cross-over is completed.
Blood samples will be collected prior to dosing, and at predetermined time periods after each dose. […] Relevant pharmacokinetic parameters will be summarized using descriptive statistics.
Collect blood from a subject. • 2. Gently mix the collected blood prior to centrifugation and place immediately on ice. • 3. Centrifuge the sample in a refrigerated centrifuge. • 4. Immediately following centrifugation, gently remove plasma from the packed cells. • 5. Freeze the plasma samples immediately at approximately −20° C. or lower.

Experiment in data set [2]: as above
The data set is classed as in vivo, human. The settings on record: overall population; 16 and 17 mg doses; prior comparative bioavailability study.

For data set [3] the following is noted: Reglan package insert; cited from earlier work.

Consider `CCN(CC)CCNC(=O)c1cc(Cl)c(N)cc1OC` [metoclopramide, 4-amino-5-chloro-N-(2-(diethylamino)ethyl)-2-methoxybenzamide], for which, in data set [1] (Female), the “AUC0-inf Inter-CV % (Between-Subject)” value amounted to 43.72%, the “AUC0-inf Intra-CV % (Within-Subject)” value was 48.14%, the “AUC0-t Inter-CV % (Between-Subject)” value came to 43.12% and the “AUC0-t Intra-CV % (Within-Subject)” value was found to be 52.62%. Also, in data set [1] (Female), the “Cmax Inter-CV % (Between-Subject)” value was determined as 35.03% and the “Cmax Intra-CV % (Within-Subject)” value was determined as 58.04%. In addition, in data set [1] (Male), the “AUC0-inf Inter-CV % (Between-Subject)” value stood at 44.81%, the “AUC0-inf Intra-CV % (Within-Subject)” value was 55.82%, the “AUC0-t Inter-CV % (Between-Subject)” value stood at 52.65% and the “AUC0-t Intra-CV % (Within-Subject)” value is on record as 62.88%. For the same molecule, in data set [1] (Male), the “Cmax Inter-CV % (Between-Subject)” value is reported as 54.25% and the “Cmax Intra-CV % (Within-Subject)” value worked out at 78.31%. In addition, the “AUC∞, AUCt, and Cmax, women versus men” value in data set [1] (each dose of metoclopramide tested) is listed as “significantly higher in women than in men”. Moreover, the “Treatment Emergent Adverse Events (TEAEs) and other safety parameters, males vs females” value in data set [1] (review of data of both studies) was “no differences between males and females”. Also, the “bioequivalence criteria for AUC” value in data set [2] is reported as “met the bioequivalence criteria”. In addition, in data set [3], the plasma protein binding result is reported as “approximately 30%” and the “volume distribution of metoclopramide” value is listed as “approximately 3.5 L/kg”.
